Assay results from EP2832223A1, “HERBICIDAL COMPOSITION” (Ishihara Sangyo Kaisha, Ltd., priority 2012, dated 2013).

Tests used:
Format in all cases: in vivo
[1] = test system: wild oat (Avena fatua L.); assay: Test Example 2: pot test, soil treatment, visual growth inhibition; details: 28th day after treatment, read-out: Growth inhibition rate (%) of wild oat Measured value
Method: Upland field soil was put into a 1/500,000 ha pot, and seeds of wild oat (Avena fatua L.) were sown. On the next day, predetermined amounts of ONEHOPE NYUZAI (tradename), Click (tradename) and SC formulation containing mesotrione as an active ingredient (tradename: Callisto, manufactured by Syngenta) were diluted with water (in an amount corresponding to 1,000 L/ha) and applied for soil treatment by a small sprayer.
(§1) On the 28th day after treatment, the state of growth of the wild oat was visually observed to determine the growth inhibition rate (%). The growth inhibition rate (%) (measured value) and the growth inhibition rate (%) calculated in the same manner as in the above Test Example 1 are shown in Table 2.

[2] = test system: sunn-hemp (Crotalaria juncea L.); assay: Test Example 7: pot test, soil treatment, visual growth inhibition; details: soil treatment, 28th day after treatment, read-out: Growth inhibition rate (%) of sunn-hemp Measured value
Method: Upland field soil was put into a 1/300,000 ha pot, and seeds of sunn-hemp (Crotalaria juncea L.) were sown. On the next day, predetermined amounts of ONEHOPE NYUZAI (tradename), Click (tradename), Mikado (tradename) and a wettable powder containing bicyclopyrone prepared in accordance with a conventional formulation method were diluted with water (in an amount corresponding to 1,000 L/ha) and applied for soil treatment by a small sprayer.
as §1, with “sunn-hemp” for “wild oat”, “7.” for “2.”

[3] = test system: prickly sida (Sida spinosa L.); assay: Test Example 10: pot test, soil treatment, visual growth inhibition; details: soil treatment, 28th day after treatment, read-out: Growth inhibition rate (%) of prickly sida Measured value
Method: Upland field soil was put into a 1/300,000 ha pot, and seeds of prickly sida (Sida spinosa L.) were sown. On the next day, predetermined amounts of ONEHOPE NYUZAI (tradename), Click (tradename), Spectrum (tradename), Callisto (tradename) and Clio (tradename) were diluted with water (in an amount corresponding to 1,000 L/ha) and applied for soil treatment by a small sprayer.
as §1, with “prickly sida” for “wild oat”, “10.” for “2.”

Row | SMILES | inhibition at 500 g/ha ([1]; 500 g/ha) | inhibition at 200 g/ha ([2]; 200 g/ha) | inhibition at 200 g/ha ([3]; 200 g/ha) | inhibition at 2000 g/ha ([3]; 2000 g/ha) | inhibition at 30 g/ha ([1]; 30 g/ha) | inhibition at 100 g/ha ([2]; 100 g/ha) | inhibition at 10 g/ha ([3]; 10 g/ha) | inhibition at 100 g/ha ([3]; 100 g/ha)
1 | CCNc1nc(Cl)nc(NC(C)(C)C)n1 [Terbuthylazine, N^2-tert-butyl-6-chloro-N^4-ethyl-1,3,5-triazine-2,4-diamine] | 60% | 30% | 30% | 80% |  |  |  | 
2 | COc1cc(OC)nc(NC(=O)NS(=O)(=O)c2ncccc2C(=O)N(C)C)n1 [Nicosulfuron, 2-(4,6-dimethoxypyrimidin-2-ylcarbamoylsulfamoyl)-N,N-dimethylnicotinamide] |  |  |  |  | 70% | 40% | 20% | 40%
